Patent US8686113B2 (priority 2009, dated 2014)
≈ marks a conversion by molar mass, not a printed value. Read-outs that look alike come from different tables or passages of the source. Non-standard residues stand in square brackets, D forms with d. Residues, ends and D or L forms follow the SMILES beside them. No end group written: not given here. Hyp = O=C(O)[C@@H]1C[C@@H](O)CN1; Orn = NCCC[C@H](N)C(=O)O

Columns and labels:
[1] = test system: M. luteus 10240; assay: Growth inhibition assay (microdilution MIC); assay type: cell-based, Micrococcus luteus; details: 10240, 20 h
Method in brief: (§1)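 Broth microdilution in 1% TSB with twofold peptide series, final 128 μg/mL to 62.5 ng/mL, against 5×10^6 bacteria/mL stock suspension added 1:1. Incubated 20 h at 37 °C, growth read by absorbance at 595 nm; MIC is the lowest concentration with no growth, determined in triplicate.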

[2] = test system: E. coli BL21 A1; assay type: cell-based, Escherichia coli; details: BL21, 20 h
Method in brief: as §1

[3] = test system: K. pneumoniae 012-3131
Description: (§2) The minimum inhibitory concentrations (MIC) of the antimicrobial peptides and peptide derivatives were determined in microdilution assays. These used a continuous peptide dilution in sterile flat-bottomed 96-well microtiter plates (polystyrene, Greiner Bio-One GmbH, Frickenhausen, Germany) and a total volume of 100 μL per well. The aqueous peptide or peptidomimetic solutions were diluted with 1% TSB water, to obtain a final concentration of 256 μg/mL. 50 μL of the peptide or peptidomimetic solution was pipetted into the first well of each series and stirred. From this solution, 50 μL was transferred to the second well, stirred and again 50 μL was transferred to the next well, and so on. A double dilution series is obtained, beginning at 256 μg/mL in the first well to 125 ng/mL in the twelfth well. The bacteria, e.g. E. coli BL21 A1, were cultured overnight at 37° C. in nutrient broth (NB, Carl Roth GmbH+Co. KG, Karlsruhe, Germany). 50 μL of a 5×10^6 bacteria/mL suspension in 1% TSB was added to each well of the microtiter plate and thus a final concentration of the peptides or peptidomimetics from 128 μg/mL (well 1) to 62.5 ng/mL (well 12) was established in each series. The plates were incubated at 37° C. for 20 h and then the absorption was measured at 595 nm with a TECAN microtiter plate spectrophotometer (Tecan Trading AG, Mannedorf, Switzerland). The MIC values of all peptides and peptidomimetics were determined in triplicate. Sterile water was used as negative control.
(§3) The tests were in this case carried out in Mueller-Hinton medium (¼ concentrated), which is equivalent to 1% TSB.

[4] = test system: K. pneumoniae K6 ATCC 700603; details: ATCC 700603
Description: as §2, §3

[5] = test system: P. vulgaris ATCC 6896
Description: as §2, §3

[6] = test system: S. typhimurium ATCC 14028
Description: as §2, §3

[7] = test system: K. pneumoniae ATCC 27799; details: ATCC 27799
Description: as §2, §3

[8] = test system: E. coli 045-849 SENTRY
Description: as §2, §3

[9] = test system: P. mirabilis ATCC 7002
Description: as §2, §3

[10] = test system: E. coli D31 J. Wilson; details: ¼ Muller-Hinton medium
Description: as §2, §3

[11] = test system: S. typhimurium ATCC 700408
Description: as §2, §3

[12] = test system: P. aeruginosa 10 J. Wilson
Description: as §2, §3

[13] = test system: S. typhimurium s5 (J. Weiser); details: ¼ Muller-Hinton medium
Description: as §2, §3

[14] = test system: E. coli ATCC BAA-457; details: ¼ Muller-Hinton medium
Description: as §2, §3

[15] = test system: Klebsiella pneumoniae DSM 681
Description: as §2
(§4) The peptides shown in Table 8 were investigated for their MIC against pathogenic bacteria such as E. coli DSM 10233, K. pneumoniae DSM 681 and P. aeruginosa DSM 3227.

[16] = test system: Pseudomonas aeruginosa DSM 3227
Description: as §2, §4

[17] = test system: Escherichia coli DSM 10233
Description: as §2, §4

[18] = Stability against bacterial proteases in E. coli lysate; assay type: in vitro ADME; details: E. coli lysate with 0.5 mg/mL protein concentration
Description: For the bacterial lysate, 500 mL of nutrient broth (Carl Roth GmbH+Co. KG, Karlsruhe) was inoculated with E. coli BL21 A1 and incubated overnight at 37° C. 2×250 mL bacterial suspension were centrifuged for 25 min at 5000 rpm and 4° C. in a Beckman Avanti™ J-20-XP centrifuge with JLA-10.500 rotor (Beckman Coulter, Fullerton, U.S.A.). The pellets were each suspended in 30 mL PBS (pH 7.4) and centrifuged again in a Beckman Allegra™ 2IR centrifuge (Beckman Coulter, Fullerton, U.S.A.). The pellets were each suspended in 10 mL PBS and were disrupted with ultrasound (Vibra-cell™ microtip, Fisher Bioblock Scientific, Illkirch, France) 2×5 min (750 W; amplitude 40%; 2 s on/3 s off) on ice. The bacterial lysates were combined and 1 mL aliquots were centrifuged at 15400 rpm for 20 min at 4° C. (Beckman Allegra™). The supernatants were removed and stored at −20° C. The protein content of the bacterial lysate was determined by protein determination according to Bradford.
A solution of 0.15 μg/mL peptide in bacterial lysate with protein content of 1.5 mg/mL or 0.5 mg/mL was incubated at 37° C. After 0, 30, 60, 120, 240 or 360 min, 200 μL was taken from each and the proteins were precipitated with 50 μL of 15% trichloroacetic acid. Then it was incubated for 10 min at 4° C. and then centrifuged for 5 min at 13000 rpm in a Minispin desktop centrifuge. 210 μL was taken from the supernatant and neutralized with 1 mol/L sodium hydroxide solution. The intact peptide and the degradation products were analyzed by HPLC. 60 μL of 3% aqueous acetonitrile with 0.1% trifluoroacetic acid (TFA) was added to the solution and 250 μL of the mixture was injected. After chromatographic separation, the constituents were identified by MALDI-TOF-MS,
In order to investigate the stability against bacterial proteases, a lysate was prepared from an overnight culture of E. coli BL21 A1 and the peptides were incubated in it. Using Bradford protein determination, the protein concentration was adjusted to 0.5 or 1.5 mg/mL.

[19] = mouse, serum
[20] = 25% aqueous mouse serum, 37° C., 75 μg/mL peptide
Description: For this, the peptides and peptidomimetics were dissolved in water, mouse serum was added and the peptide concentration was adjusted to 75 μg/mL. While shaking continuously, the mixture was incubated at 37° C. After 0, 30, 60, 120, 240 and 360 minutes, in each case an aliquot was taken and mixed with 15% aqueous trichloroacetic acid (Carl Roth GmbH & Co. KG; Karlsruhe, Germany). After incubation on ice for a further 10 minutes, the precipitated serum proteins were centrifuged off (5 min, 13400 rpm, MiniSpin, Eppendorf AG, Hamburg, Germany). The supernatant was removed, neutralized with 1 mol/L aqueous sodium hydroxide solution (Fluke Chemie GmbH, Buchs, Switzerland) and stored at −20° C. until analysis.
The supernatants were analyzed by RP-HPLC with a linear acetonitrile gradient (Biosolve BV, Valkenswaard, The Netherlands) in the presence of 0.1% trifluoroacetic acid (TFA, UV-grade, Fluka Chemie GmbH, Buchs, Switzerland) as ion-pairing reagent. The fractions were co-crystallized with α-cyanohydroxycinnamic acid (Bruker Daltonik GmbH; Bremen, Germany) as matrix (5.3 mg/mL in 50% acetonitrile in 0.1% aqueous TFA) and were analyzed with a tandem mass spectrometer (MALDI-TOF/TOF-MS, 4700 Proteomics Analyzer; Applied Biosystems GmbH, Weiterstadt, Germany) in the positive-ion reflector mode. The proportion of intact peptides and their degradation products or metabolites could thus be identified and quantified at the individual time points. The control used was 25% aqueous mouse serum, which was analyzed in parallel for the same time intervals.
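Throughout, for Half-life in 25% mouse serum: intact peptide left at successive time points measured by reversed-phase HPLC with an acetonitrile gradient in the supernatant after precipitation of serum proteins.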

Row | Compound | MIC M. luteus 10240 [1] [µg/mL] | MIC E. coli BL21 A1 [2] [µg/mL] | MIC K. pneumoniae 012-3131 [3] [µg/mL] | MIC K. pneumoniae K6 ATCC 700603 [4] [µg/mL] | MIC K. pneumoniae ATCC 27799 [7] [µg/mL] | MIC E. coli D31 J. Wilson [10] [µg/mL] | MIC E. coli SEQ 102ATCC # BAA-4 57 [14] [µg/mL] | MIC K. pneumoniae DSM 681 [15] [µg/mL] | MIC E. coli DSM 10233 [17] [µg/mL] | other results
1 | CC[C@H](C)[C@H](NC(=O)[C@H](CCCNC(=N)N)NC(=O)[C@H](CCCNC(=N)N)NC(=O)[C@@H]1CCCN1C(=O)[C@@H]1CCCN1C(=O)[C@H](CCCNC(=N)N)NC(=O)[C@@H]1CCCN1C(=O)[C@H](CCCNC(=N)N)NC(=O)[C@@H]1C[C@@H](O)CN1C(=O)[C@H](CC(C)C)NC(=O)[C@H](Cc1ccc(O)cc1)NC(=O)[C@@H]1CCCN1C(=O)[C@@H]1CCCN1C(=O)[C@H](CCCCN)NC(=O)[C@H](CC(=O)O)NC(=O)[C@@H](N)C(C)C)C(=O)N[C@@H](Cc1ccc(O)cc1)C(=O)N[C@@H](CC(N)=O)C(=O)N[C@@H](CCCNC(=N)N)C(N)=O [compound 22] (H-VDKPPYL[Hyp]RPRPPRRIYNR-NH2) | 4 (≈ 1.66 µM) | 8 (≈ 3.33 µM) | 4 (≈ 1.66 µM) | 8 (≈ 3.33 µM) | 16 (≈ 6.65 µM) | 2 (≈ 0.831 µM) | 4 (≈ 1.66 µM) |  |  | MIC P. vulgaris ATCC 6896 ([5]; ATCC 6896): 128 µg/mL (≈ 53.2 µM); MIC S. typhimurium ATCC 14028 [6]: 2 µg/mL (≈ 0.831 µM); MIC E. coli 045-849 SENTRY ([8]; 045-849 SENTRY): 4 µg/mL (≈ 1.66 µM); MIC P. mirabilis ATCC 7002 ([9]; ATCC 7002): 128 µg/mL (≈ 53.2 µM); MIC S. typhimurium ATCC 700408 [11]: 0.5 µg/mL (≈ 0.208 µM); MIC P. aeruginosa 10 J. Wilson [12]: 16 µg/mL (≈ 6.65 µM); MIC S. typhimurium s5 (J. Weiser) [13]: 8 µg/mL (≈ 3.33 µM)
2 | CC[C@H](C)[C@H](NC(=O)[C@H](CCCN)NC(=O)[C@H](CCCNC(=N)N)NC(=O)[C@@H]1C[C@@H](O)CN1C(=O)[C@@H]1CCCN1C(=O)[C@H](CCCNC(=N)N)NC(=O)[C@@H]1CCCN1C(=O)[C@H](CCCNC(=N)N)NC(=O)[C@@H]1CCCN1C(=O)[C@H](CC(C)C)NC(=O)[C@H](Cc1ccc(O)cc1)NC(=O)[C@@H]1CCCN1C(=O)[C@@H]1CCCN1C(=O)[C@H](CCCCN)NC(=O)[C@H](CC(=O)O)NC(=O)[C@@H](N)C(C)C)C(=O)N[C@@H](Cc1ccc(O)cc1)C(=O)N[C@@H](CC(N)=O)C(=O)N[C@@H](CCCN)C(N)=O [compound 107] (H-VDKPPYLPRPRP[Hyp]R[Orn]IYN[Orn]-NH2) | 4 (≈ 1.72 µM) | 4 (≈ 1.72 µM) |  |  |  |  |  | 4 (≈ 1.72 µM) | 16 (≈ 6.89 µM) | MIC P. aeruginosa DSM 3227 [16]: >32 µg/mL
3 | CC[C@H](C)[C@H](NC(=O)[C@@H]1C[C@@H](O)CN1C(=O)[C@H](CCCNC(=N)N)NC(=O)[C@@H]1C[C@@H](O)CN1C(=O)[C@@H]1CCCN1C(=O)[C@H](CCCNC(=N)N)NC(=O)[C@@H]1CCCN1C(=O)[C@H](CCCNC(=N)N)NC(=O)[C@@H]1CCCN1C(=O)[C@H](CC(C)C)NC(=O)[C@H](Cc1ccc(O)cc1)NC(=O)[C@@H]1CCCN1C(=O)[C@@H]1CCCN1C(=O)[C@H](CCCCN)NC(=O)[C@H](CC(=O)O)NC(=O)[C@@H](N)C(C)C)C(=O)N[C@@H](Cc1ccc(O)cc1)C(=O)N[C@@H](CC(N)=O)C(=O)N[C@@H](CCCN)C(N)=O [compound 108] (H-VDKPPYLPRPRP[Hyp]R[Hyp]IYN[Orn]-NH2) | 32 (≈ 13.8 µM) | 2 (≈ 0.862 µM) |  |  |  |  |  | 2 (≈ 0.862 µM) | 1 (≈ 0.431 µM) | remaining at 4 h, 0.15 μg/mL ([18]; E. coli BL21 A1 lysate (bacterial proteases), pH 7.4, read-out: percentage printed under half-life >240 min (peptide remaining)): 60%; half-life ([18]; 37° C.): > 4 h; MIC P. aeruginosa DSM 3227 [16]: 16 to 32 µg/mL; half-life [19]: 2.5 h
4 | CC[C@H](C)[C@H](NC(=O)[C@@H](CCCNC(=N)N)NC(=O)[C@H](CCCNC(=N)N)NC(=O)[C@@H]1CCCN1C(=O)[C@@H]1CCCN1C(=O)[C@H](CCCNC(=N)N)NC(=O)[C@@H]1CCCN1C(=O)[C@H](CCCNC(=N)N)NC(=O)[C@@H]1CCCN1C(=O)[C@H](CC(C)C)NC(=O)[C@H](Cc1ccc(O)cc1)NC(=O)[C@@H]1CCCN1C(=O)[C@@H]1CCCN1C(=O)[C@H](CCCCN)NC(=O)[C@H](CC(=O)O)NC(=O)[C@@H](N)C(C)C)C(=O)N[C@@H](Cc1ccc(O)cc1)C(=O)N[C@@H](CC(N)=O)C(=O)N[C@@H](CCCNC(=N)N)C(N)=O [compound 111] (H-VDKPPYLPRPRPPR[dR]IYNR-NH2) | 4 (≈ 1.67 µM) | 4 (≈ 1.67 µM) |  |  |  |  |  | 4 (≈ 1.67 µM) | 4 (≈ 1.67 µM) | 
5 | CC[C@@H](C)[C@@H](NC(=O)[C@@H](Cc1ccc(O)cc1)NC(=O)[C@@H](CC(N)=O)NC(=O)[C@H](N)CCCNC(=N)N)C(=O)N[C@H](CCCNC(=N)N)C(=O)N[C@H](CCCNC(=N)N)C(=O)N1CCC[C@@H]1C(=O)N1CCC[C@@H]1C(=O)N[C@H](CCCNC(=N)N)C(=O)N1CCC[C@@H]1C(=O)N[C@H](CCCNC(=N)N)C(=O)N1CCC[C@@H]1C(=O)N[C@H](CC(C)C)C(=O)N[C@H](Cc1ccc(O)cc1)C(=O)N1CCC[C@@H]1C(=O)N1CCC[C@@H]1C(=O)N[C@H](CCCCN)C(=O)N[C@H](CC(=O)O)C(=O)N[C@@H](C(N)=O)C(C)C [compound 117] (H-[dR][dN][dY][dI][dR][dR][dP][dP][dR][dP][dR][dP][dL][dY][dP][dP][dK][dD][dV]-NH2) | 32 (≈ 13.4 µM) | 64 (≈ 26.8 µM) |  |  |  |  |  | >32 | >32 | 
6 | H-VDKPPYLPRPRPPRRIYNNR-NH2 [compound 15] | 8 | 8 | 16 | 32 | 64 | 16 | 32 |  |  | MIC P. vulgaris ATCC 6896 ([5]; ¼ Muller-Hinton medium): >; MIC S. typhimurium ATCC 14028 [6]: 4 µg/mL; MIC E. coli 045-849 SENTRY ([8]; 045-849 SENTRY): 4 µg/mL; MIC P. mirabilis ATCC 7002 ([9]; ¼ Muller-Hinton medium): >; MIC S. typhimurium ATCC 700408 [11]: 0.5 µg/mL; MIC P. aeruginosa 10 J. Wilson [12]: 16 µg/mL; MIC S. typhimurium s5 (J. Weiser) [13]: 8 µg/mL
7 | VDKPPYLPRPRPPRRIYNNR [compound 14] | 16 | 8 | 32 | 64 | 128 | 32 | 64 |  |  | Half-life in 25% mouse serum [20]: <0.5 h; MIC E. coli 045-849 SENTRY ([8]; ¼ Muller-Hinton medium): 4 µg/mL
